From ChEMBL document CHEMBL1201862, “PubChem BioAssay data set” (2004)
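96-well plates; 48 h exposure; 5 concentrations. Endpoints by linear interpolation between flanking doses. Not reached: highest tested concentration assigned. GI50: concentration for 50% inhibition of growth.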 Activity calls are given as the source filed them. No stated cut-off is given here; in the data, active = GI50 up to about 1.1 µM and inactive = higher.

Key:
Assay in all cases: NCI tumour cell line growth inhibition, 48 h
786-0 = test system: 786-0
A498 = test system: A498
A549 = test system: A549
ACHN = test system: ACHN
BT-549 = test system: BT-549
CAKI-1 = test system: CAKI-1
CCRF-CEM = test system: CCRF-CEM
COLO 205 = test system: COLO 205
DU-145 = test system: DU-145
HCC 2998 = test system: HCC 2998
HCT-116 = test system: HCT-116
HCT-15 = test system: HCT-15
HL-60 = test system: HL-60
HOP-92 = test system: HOP-92
HT-29 = test system: HT-29
IGROV-1 = test system: IGROV-1
K562 = test system: K562
KM12 = test system: KM12
M14 = test system: M14
MCF7 = test system: MCF7
MDA-MB-231 = test system: MDA-MB-231
MDA-MB-435 = test system: MDA-MB-435
MDA-N = test system: MDA-N
MOLT-4 = test system: MOLT-4
Malme-3M = test system: Malme-3M
NCI-H226 = test system: NCI-H226
NCI-H23 = test system: NCI-H23
NCI-H460 = test system: NCI-H460
NCI-H522 = test system: NCI-H522
NCI/ADR-RES = test system: NCI/ADR-RES
OVCAR-3 = test system: OVCAR-3
OVCAR-4 = test system: OVCAR-4
OVCAR-5 = test system: OVCAR-5
OVCAR-8 = test system: OVCAR-8
PC-3 = test system: PC-3
RPMI-8226 = test system: RPMI-8226
RXF 393 = test system: RXF 393
SF-268 = test system: SF-268
SF-295 = test system: SF-295
SF-539 = test system: SF-539
SK-MEL-28 = test system: SK-MEL-28
SK-MEL-2 = test system: SK-MEL-2
SK-MEL-5 = test system: SK-MEL-5
SN12C = test system: SN12C
SNB-19 = test system: SNB-19
SNB-75 = test system: SNB-75
SR = test system: SR
SW-620 = test system: SW-620
T47D = test system: T47D
TK-10 = test system: TK-10
U-251 = test system: U-251
UACC-257 = test system: UACC-257
UACC-62 = test system: UACC-62
UO-31 = test system: UO-31
EKVX = test system: EKVX
HOP-62 = test system: HOP-62
Hs-578T = test system: Hs-578T
LOX IMVI = test system: LOX IMVI
SK-OV-3 = test system: SK-OV-3

In the case of `NC(Cc1ccc(O)c(O)c1)P(=O)(O)O` (stereo unspecified), the GI50 (786-0) is reported as > 100 µM (inactive), the GI50 (A498) is reported as > 100 µM (inactive) and the GI50 (A549) is reported as > 100 µM (inactive). The GI50 (ACHN) was > 100 µM (inactive), the GI50 (BT-549) was > 100 µM (inactive) and the GI50 (CAKI-1) was > 100 µM (inactive). For the same compound, the GI50 (CCRF-CEM) was 21.6 µM (inactive), the GI50 (COLO 205) was > 10 µM (inactive) and the GI50 (DU-145) was > 100 µM (inactive). The GI50 (HCC 2998) was > 100 µM (inactive), the GI50 (HCT-116) was > 100 µM (inactive) and the GI50 (HCT-15) was over 100 µM. For the same compound, the GI50 (HL-60) was 16.2 µM (inactive), the GI50 (HOP-92) was > 100 µM (inactive) and the GI50 (HT-29) was > 100 µM (inactive). For the same compound, the GI50 (IGROV-1) was > 100 µM (inactive), the GI50 (K562) was 19.6 µM (inactive) and the GI50 (KM12) was > 100 µM (inactive). The GI50 (M14) was > 100 µM (inactive), the GI50 (MCF7) was > 10 µM (inactive) and the GI50 (MDA-MB-231) was > 100 µM (inactive). For the same compound, the GI50 (MDA-MB-435) was > 100 µM (inactive), the GI50 (MDA-N) was > 100 µM (inactive) and the GI50 (MOLT-4) was > 100 µM (inactive). The GI50 (Malme-3M) was 81.5 µM (inactive), the GI50 (NCI-H226) was > 100 µM (inactive) and the GI50 (NCI-H23) was > 100 µM (inactive). The GI50 (NCI-H460) was > 100 µM (inactive), the GI50 (NCI-H522) was 4.75 µM (inactive) and the GI50 (NCI/ADR-RES) was > 100 µM (inactive). For the same compound, the GI50 (OVCAR-3) was > 100 µM (inactive), the GI50 (OVCAR-4) was > 100 µM (inactive) and the GI50 (OVCAR-5) was > 100 µM (inactive). For the same compound, the GI50 (OVCAR-8) was > 100 µM (inactive), the GI50 (PC-3) was > 100 µM (inactive) and the GI50 (RPMI-8226) was 92.7 µM (inactive). For the same compound, the GI50 (RXF 393) was > 100 µM (inactive), the GI50 (SF-268) was > 100 µM (inactive) and the GI50 (SF-295) was > 100 µM (inactive). For the same compound, the GI50 (SF-539) was > 100 µM (inactive), the GI50 (SK-MEL-28) was > 100 µM (inactive) and the GI50 (SK-MEL-2) was > 100 µM (inactive). For the same compound, the GI50 (SK-MEL-5) was > 100 µM (inactive), the GI50 (SN12C) was > 100 µM (inactive) and the GI50 (SNB-19) was > 100 µM (inactive). For the same compound, the GI50 (SNB-75) was > 100 µM (inactive), the GI50 (SR) was 91.8 µM (inactive) and the GI50 (SW-620) was 20.1 µM (inactive). For the same compound, the GI50 (T47D) was 18 µM (inactive), the GI50 (TK-10) was > 100 µM (inactive) and the GI50 (U-251) was > 100 µM (inactive). For the same compound, the GI50 (UACC-257) was > 100 µM (inactive), the GI50 (UACC-62) was > 100 µM (inactive) and the GI50 (UO-31) was > 100 µM (inactive).

For `C/C(=N/NC(=S)N(C)C)c1ccccc1O`, the GI50 (786-0) was 6.32 µM (inactive), the GI50 (A498) was 36.1 µM (inactive) and the GI50 (A549) was 7.87 µM (inactive). For the same compound, the GI50 (ACHN) was 6.31 µM (inactive), the GI50 (BT-549) was 10.4 µM (inactive) and the GI50 (CAKI-1) was 25.7 µM (inactive). The GI50 (CCRF-CEM) was 2.88 µM (inactive), the GI50 (COLO 205) was 13.7 µM (inactive) and the GI50 (DU-145) was 18.9 µM (inactive). For the same compound, the GI50 (EKVX) was 29.1 µM (inactive), the GI50 (HCC 2998) was 18.7 µM (inactive) and the GI50 (HCT-116) was 3.33 µM (inactive). The GI50 (HCT-15) was 3.28 µM, the GI50 (HL-60) was > 22.5 µM (inactive) and the GI50 (HOP-62) was 5.81 µM (inactive). For the same compound, the GI50 (HOP-92) was > 75.2 µM (inactive), the GI50 (HT-29) was 3.26 µM (inactive) and the GI50 (Hs-578T) was > 72.4 µM (inactive). For the same compound, the GI50 (IGROV-1) was 5.98 µM (inactive), the GI50 (K562) was 19.1 µM (inactive) and the GI50 (KM12) was 8.85 µM (inactive). The GI50 (LOX IMVI) was 4.86 µM (inactive), the GI50 (M14) was 7.35 µM (inactive) and the GI50 (MDA-MB-231) was 35.8 µM (inactive). For the same compound, the GI50 (MDA-MB-435) was 21.6 µM (inactive), the GI50 (MDA-N) was 11.9 µM (inactive) and the GI50 (MOLT-4) was 20.5 µM (inactive). For the same compound, the GI50 (Malme-3M) was 7.26 µM (inactive), the GI50 (NCI-H226) was > 23.7 µM (inactive) and the GI50 (NCI-H23) was 20.7 µM (inactive). The GI50 (NCI-H460) was 2.26 µM (inactive), the GI50 (NCI-H522) was 9.86 µM (inactive) and the GI50 (NCI/ADR-RES) was 3.53 µM (inactive). The GI50 (OVCAR-3) was 2.97 µM (inactive), the GI50 (OVCAR-4) was 11.3 µM (inactive) and the GI50 (OVCAR-5) was 17.4 µM (inactive). The GI50 (OVCAR-8) was 5.22 µM (inactive), the GI50 (PC-3) was 10.1 µM (inactive) and the GI50 (RPMI-8226) was > 31.8 µM (inactive). The GI50 (RXF 393) was 23 µM (inactive), the GI50 (SF-268) was 6.07 µM (inactive) and the GI50 (SF-295) was 11.8 µM (inactive). For the same compound, the GI50 (SF-539) was 8.91 µM (inactive), the GI50 (SK-MEL-28) was 26.4 µM (inactive) and the GI50 (SK-MEL-2) was 11.9 µM (inactive). For the same compound, the GI50 (SK-MEL-5) was 7.67 µM (inactive), the GI50 (SK-OV-3) was > 44.5 µM (inactive) and the GI50 (SN12C) was 14.4 µM (inactive). The GI50 (SNB-19) was > 59.8 µM (inactive), the GI50 (SNB-75) was 6.82 µM (inactive) and the GI50 (SW-620) was 9.4 µM (inactive). For the same compound, the GI50 (T47D) was 14.5 µM (inactive), the GI50 (TK-10) was 13.3 µM (inactive) and the GI50 (U-251) was 6.35 µM (inactive). For the same compound, the GI50 (UACC-257) was 17.1 µM (inactive), the GI50 (UACC-62) was 6.46 µM (inactive) and the GI50 (UO-31) was 8.67 µM (inactive).
